Laboratory results reported in US20210100832A1, “INJECTABLE COMPOSITION FOR THE TREATMENT OF MUSCULOSKELETAL DISORDERS AND METHODS OF USE THEREOF” (Patchor Ltd., priority 2019, published 2021).

What was measured:
[1] = test system: wistar rats with knee osteoarthritis (ACLT with MMx); assay: Weight bearing (incapacitance tester) in rat knee OA induced by ACLT with medial meniscectomy; type: in vivo; conditions: 150 microliters into the knee; 20 days post treatment (day 34); *p=0.0012, **p=0.0458; FIG. 2
Description: Induction of knee osteoarthritis was performed by an anterior cruciate ligament transaction (ACLT) with medial meniscectomy (MMx) on one leg of wistar rats while the contralateral knee served as self-control. After the procedure the animals were divided into three experimental groups of 7 animals per group. Control group was treated by injection of 150 microliters of 1% HA into the knee. Experimental groups were treated by injection of 150 microliters of either GR or GR-HA.
Formulation for dosing of control group was taken from commercial HA-1% viscosupplementation injection (Arthrease 1% sodium hyaluronate Lot R10008G, produced by Bio-Technology General). GR+HA was prepared by Patchor's standard procedures, as described in International Patent Publication No. WO 2009/150651 A1, of mixing HA with GM or with GR. All injections volume was 150 microliters. The positive control HA group was treated immediately post surgery and again at day 14 post surgery, and the HA−CM−GM was treated only once at day 14 post surgery. The experimental outcome was assessed by measuring weight bearing on the OA leg using an incapacitance tester.

galectin-3 = galectin-3 (Homo sapiens, UniProt P17931); conditions: reference [8]; cited from earlier work
[2] = test system: wistar rats with knee osteoarthritis (ACLT with MMx); assay: Von Frey filament mechanical nociceptive threshold test in rat knee OA; type: in vivo
Description: As described in Example 3, OA was induced on one leg of wistar rats while the contralateral knee served as self-control. Thereafter, 14 rats were divided into two experimental groups. 7 were treated by injection of HA to the knee, as a positive control, and 7 were injected with GR. Injection volume was 150 microliters.
The experimental outcome was assessed using the Von Frey filament method for detection of mechanical nociceptive threshold test.

Chain of galectin-3 (P17931 whole entry, species assumed): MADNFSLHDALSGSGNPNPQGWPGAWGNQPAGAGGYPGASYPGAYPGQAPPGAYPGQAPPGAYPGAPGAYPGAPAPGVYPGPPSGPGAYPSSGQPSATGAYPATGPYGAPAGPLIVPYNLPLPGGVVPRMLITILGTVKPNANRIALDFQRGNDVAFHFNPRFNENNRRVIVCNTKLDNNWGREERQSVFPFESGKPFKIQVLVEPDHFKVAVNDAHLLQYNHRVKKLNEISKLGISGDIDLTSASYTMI

For Galactoarabino-Rhamnogalacturonan [GR], the “weight bearing ability on the operated OA leg compared to HA group” value [1] is given as “significant increase in weight bearing ability”, the “inhibition of galectin-3” value (galectin-3) is given as “potent inhibitors of galectin-3” and the “pain response compared to control HA (Von Frey)” value ([2]; 150 microliters into OA knee, FIG. 3) is given as “significantly reduced pain response”. The “nociceptive threshold of OA leg versus control HA” value ([2]; 1 day post treatment, p=0.02) was “significant reduction in nociceptive threshold”, the “nociceptive threshold of OA leg versus control HA” value ([2]; 19 days post treatment, p=0.007) was “significant reduction in nociceptive threshold” and the “nociceptive reaction in the healthy legs, GR versus HA group” value ([2]; healthy contralateral legs, data not shown) was “No difference in nociceptive reaction”.
For Galactomannan [GM], the “inhibition of galectin-3” value (galectin-3) is listed as “potent inhibitors of galectin-3”.
